Source: patent US12590123B2, “Compounds and methods for treating cancer, viral infections, and allergic conditions” (Washington University, priority 2019, dated 2026)
Where two headings read alike, the source gives them in different places. Starred links: 1 amine or outer side, 2 acyl side, 3 side chain; linkers in the order of their positions; H or OH if unused. Non-standard residues stand in square brackets, D forms with d. Residues, ends and D or L forms follow the SMILES beside them. X6 = N=C(N)NCCC[C@H](N[*:1])C(=O)c1nc2ccc(C(=O)[*:2])cc2s1

Tests used:
KLK5 = target: T1, KLK5 (Homo sapiens, UniProt Q9Y337); test: Fluorescent kinetic enzyme inhibitor assay of KLK5 (Boc-VPR-AMC); format: biochemical; conditions: Table 4; 7.5 nM KLK5, 100 μM substrate
T1 construct: purchased R&D Systems 1108-SE-010
T1 sequence (Q9Y337 23-293): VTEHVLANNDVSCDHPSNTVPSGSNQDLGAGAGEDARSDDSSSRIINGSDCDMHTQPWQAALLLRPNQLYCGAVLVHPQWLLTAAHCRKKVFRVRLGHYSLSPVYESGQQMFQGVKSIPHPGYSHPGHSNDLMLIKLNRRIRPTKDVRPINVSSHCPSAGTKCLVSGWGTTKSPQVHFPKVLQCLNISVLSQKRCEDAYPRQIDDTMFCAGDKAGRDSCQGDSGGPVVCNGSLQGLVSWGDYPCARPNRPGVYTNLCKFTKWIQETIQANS
Experimental: Fluorescent Kinetic Enzyme Inhibitor Assay of KLK5: Inhibitors (11-pt serial dilutions, 0-20 μM final concentration in reaction) were serially diluted in DMSO (2% DMSO final concentration) and then mixed with KLK5 (#1108-SE-010, R&D Systems, Minneapolis, Minnesota) in black 384 well plates (Corning #3575. Corning, NY). The final assay concentration for KLK5 is 7.5 nM in TNC buffer (25 mM Tris, 150 mM NaCl, 5 mM CaCl2), 0.01% Triton X-100, pH 8). After thirty minutes incubation at room temperature, Boc-VPR-AMC substrate was added. The final substrate concentrations for assay is 100 μM. Changes in fluorescence (excitation at 380 nm and emission at 460 nm) were measured at room temperature over time in a Biotek Synergy 2 plate reader (Winnoski, VT). Using GraphPad Prism version 6.04 software program, (GraphPad Software, San Diego, CA, graphpad.com), a four parameter curve fit was used to determine the inhibitor IC50s from a plot of the mean reaction velocity versus the inhibitor concentration. The IC50 values represent the average of three or more separate experimental determinations.

[1] = test system: VSVpp (SARS-2-S) entry into TMPRSS2-positive Calu-3 cells
activated hepsin = target: T2, activated hepsin (Homo sapiens, UniProt P05981); test: Fluorescent kinetic enzyme assay of hepsin activity (Boc-QAR-AMC); format: biochemical
T2 construct: purchased R&D Systems 4776-SE-010

recombinant thrombin = recombinant thrombin (Homo sapiens, UniProt P00734); test: Chromogenic kinetic enzyme assay of thrombin (S2238); format: biochemical; conditions: Table 2; chromogenic assay; read-out: Thrombin* (IC50 nM)
Experimental: (§1) Using GraphPad Prism (GraphPad Software, San Diego, CA), a four-parameter curve fit was used to determine the inhibitor IC50s from a plot of the mean reaction velocity versus the inhibitor concentration. The IC50 values represent the average of three or more separate experimental determinations. Apparent Ki values were calculated from the IC50 values using the Cheng and Prusoff equation (Ki=IC50/(1+[S]/Km).
(§2) Using GraphPad Prism version 6.04 software program, (GraphPad Software, San Diego, CA, graphpad.com), a four parameter curve fit was used to determine the inhibitor IC50s from a plot of the mean reaction velocity versus the inhibitor concentration.
(§3) Fluorescent inhibitor and chromogenic proteolytic assays were performed for compounds prepared in Example 11 in general accordance with the procedures described in Example 9.

[2] = target: T3, recombinant HGFA serine protease domain (Homo sapiens, UniProt Q04756); test: Fluorescent kinetic enzyme assay of HGFA activity (Boc-QLR-AMC); format: biochemical; conditions: Table 2; read-out: HGFA (IC50 nM)
T3 construct: His6 tag (N); seven amino acid spacer plus TEV cleavage site (N); made in house; host or cells: High 5 insect cells (baculovirus; Sf9 for virus production)
T3 sequence (Q04756 373-655): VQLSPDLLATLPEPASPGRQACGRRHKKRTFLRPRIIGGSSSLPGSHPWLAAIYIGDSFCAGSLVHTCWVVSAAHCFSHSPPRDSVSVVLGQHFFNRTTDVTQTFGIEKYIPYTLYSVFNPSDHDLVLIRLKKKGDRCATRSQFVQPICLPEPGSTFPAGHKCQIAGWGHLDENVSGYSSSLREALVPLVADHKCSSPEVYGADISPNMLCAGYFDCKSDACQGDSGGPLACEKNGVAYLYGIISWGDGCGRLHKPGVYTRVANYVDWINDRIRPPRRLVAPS
Outline: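 His-tagged HGFA protease domain from baculovirus-infected High 5 cells, 6.25 nM in pH 8 Tris/NaCl/5 mM CaCl2/0.01% Triton X-100 with 2% DMSO. IC50 from four-parameter velocity fit (≥3 runs); apparent Ki by Cheng–Prusoff.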

matriptase = target: T4, matriptase (Homo sapiens, UniProt Q9Y5Y6); test: Fluorescent kinetic enzyme assay of matriptase activity (Boc-QAR-AMC); format: biochemical; conditions: Table 2; read-out: Matriptase (IC50 nM)
T4 construct: purchased R&D Systems 3946-SE-010
T4 sequence (Q9Y5Y6 615-855 limits assumed): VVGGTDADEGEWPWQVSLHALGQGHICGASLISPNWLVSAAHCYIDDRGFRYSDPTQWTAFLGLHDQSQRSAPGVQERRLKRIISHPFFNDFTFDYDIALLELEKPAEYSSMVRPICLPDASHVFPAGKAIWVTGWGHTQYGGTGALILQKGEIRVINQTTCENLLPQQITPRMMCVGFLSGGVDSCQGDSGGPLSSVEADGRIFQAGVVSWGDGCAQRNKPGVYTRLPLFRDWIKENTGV

Factor Xa = Factor Xa (Homo sapiens, UniProt P00742); test: Chromogenic kinetic enzyme assay of Factor Xa (S2222); format: biochemical; conditions: Table 2; chromogenic assay; read-out: Factor Xa* (IC50 nM)
Experimental: as §1, §2, §3

[3] = Table 2, read-out: Hepsin (IC50 nM)

Chain of Factor Xa (P00742 235-488 limits assumed): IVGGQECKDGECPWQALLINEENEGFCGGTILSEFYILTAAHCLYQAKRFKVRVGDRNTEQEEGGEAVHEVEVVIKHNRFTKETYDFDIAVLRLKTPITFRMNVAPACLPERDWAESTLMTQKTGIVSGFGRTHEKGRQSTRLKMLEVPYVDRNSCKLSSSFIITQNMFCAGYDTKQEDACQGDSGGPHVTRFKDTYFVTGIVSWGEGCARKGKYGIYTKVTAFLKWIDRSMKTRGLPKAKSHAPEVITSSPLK
Chain of Factor Xa (P00742 41-179 partner limits assumed): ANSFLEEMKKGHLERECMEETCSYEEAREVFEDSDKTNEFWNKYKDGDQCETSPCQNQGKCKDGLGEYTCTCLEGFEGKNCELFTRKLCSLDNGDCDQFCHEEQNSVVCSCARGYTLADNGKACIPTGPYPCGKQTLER
T2 sequence (P05981 163-417 limits assumed): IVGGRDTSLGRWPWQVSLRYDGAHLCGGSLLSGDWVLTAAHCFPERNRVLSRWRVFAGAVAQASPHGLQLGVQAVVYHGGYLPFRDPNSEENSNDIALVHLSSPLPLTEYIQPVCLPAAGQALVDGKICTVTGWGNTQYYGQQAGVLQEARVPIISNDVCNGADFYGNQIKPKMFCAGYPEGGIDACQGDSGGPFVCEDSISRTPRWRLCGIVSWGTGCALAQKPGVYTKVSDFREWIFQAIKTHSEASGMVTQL
T2 sequence (P05981 1-162 partner limits assumed): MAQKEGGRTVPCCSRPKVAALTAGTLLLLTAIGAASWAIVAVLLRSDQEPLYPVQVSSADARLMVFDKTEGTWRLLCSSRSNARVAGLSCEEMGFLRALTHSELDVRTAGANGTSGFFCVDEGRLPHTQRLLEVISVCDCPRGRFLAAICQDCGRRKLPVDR

| SMILES | EC50 [1] [nM] | IC50 (activated hepsin; [3]) [nM] | IC50 (recombinant thrombin) [nM] | IC50 [2] [nM] | IC50 (matriptase) [nM] | IC50 (Factor Xa) [nM] | further results |
| --- | --- | --- | --- | --- | --- | --- | --- |
| CC(=O)N[C@@H](Cc1c[nH]c2ccccc12)C(=O)N[C@@H](Cc1ccccc1)C(=O)N[C@@H](CCCNC(=N)N)C(=O)c1nc2ccccc2s1 [AcWFRkbt, Ac-WFR-kbt] |  |  |  |  |  |  | IC50 (KLK5): > 20000 nM |
| CC(=O)N[C@@H](CC(C)C)C(=O)N[C@@H](CC(C)C)C(=O)N[C@H](C=O)CCCNC(=N)N [Leupeptin, reference compound] |  |  |  |  |  |  | IC50 (KLK5): > 20000 nM |
| CC(=O)N[C@H]1CC(=O)NCCCC[C@@H](C(=O)N[C@@H](CCCNC(=N)N)B(O)O)NC(=O)[C@H](CC(C)C)NC1=O [MM2030] |  |  |  |  |  |  | IC50 (KLK5): 18100 nM |
| CC(=O)N[C@H](Cc1c[nH]c2ccccc12)C(=O)N[C@@H](Cc1ccccc1)C(=O)N[C@@H](CCCNC(=N)N)C(=O)c1nc2ccccc2s1 [PK-1-89, Ac-dWFR-kbt] | 32 |  |  |  |  |  |  |
| CC(=O)N[C@H]1CC(=O)NCCCC[C@@H](C(=O)N[C@@H](CCCNC(=N)N)C(=O)c2nc3ccccc3s2)NC(=O)[C@H](CC(C)C)NC1=O [VD2173, (3S,6S,14S)-6-acetamido-N—((S)-1-(benzo[d]thiazol-2-yl)-5-guanidino-1-oxopentan-2-yl)-3-isobutyl-2,5,8-trioxo-1,4,9-triazacyclotetradecane-14-carboxamide] | 104 | 8.4 | 699 |  |  |  | IC50 (activated hepsin; Table 6, read-out: Hepsin IC50): 10 nM |
| CC(=O)N[C@H]1CC(=O)NCCCC[C@@H](C(=O)N[C@@H](CCCNC(=N)N)C(=O)c2nc3ccccc3s2)NC(=O)[C@H](CCC(N)=O)NC1=O [VD3152, (3S,6S,14S)-6-acetamido-3-(3-amino-3-oxopropyl)-N—((S)-1-(benzo[d]thiazol-2-yl)-5-guanidino-1-oxopentan-2-yl)-2,5,8-trioxo-1,4,9-triazacyclotetradecane-14-carboxamide] | 138 |  |  |  |  |  | Calu-3 EC50 (nM) [1]: almost equivalent activity |
| CC(=O)N[C@H]1CC(=O)NCCCC[C@@H](C(=O)N[C@@H](CCCNC(=N)N)C(=O)c2nc3ccccc3s2)NC(=O)[C@H](CC(N)=O)NC1=O [VD3166, (3S,6S,14S)-6-acetamido-3-(2-amino-2-oxoethyl)-N—((S)-1-(benzo[d]thiazol-2-yl)-5-guanidino-1-oxopentan-2-yl)-2,5,8-trioxo-1,4,9-triazacyclotetradecane-14-carboxamide] |  | 10.1 | > 20000 | 15800 | 3.8 | 4650 |  |
| CC(=O)N[C@H]1CC(=O)NCCCC[C@@H](C(=O)N[C@@H](CCCNC(=N)N)C(=O)c2nc3ccccc3s2)NC(=O)[C@H](C(C)C)NC1=O [VD3167, (3S,6S,14S)-6-acetamido-N—((S)-1-(benzo[d]thiazol-2-yl)-5-guanidino-1-oxopentan-2-yl)-3-isopropyl-2,5,8-trioxo-1,4,9-triazacyclotetradecane-14-carboxamide] |  | 7.8 | > 20000 | 1830 | 3.2 | 1510 |  |
| CSCC[C@@H]1NC(=O)[C@@H](NC(C)=O)CC(=O)NCCCC[C@@H](C(=O)N[C@@H](CCCNC(=N)N)C(=O)c2nc3ccccc3s2)NC1=O [VD3173, (3S,6S,14S)-6-acetamido-N—((S)-1-(benzo[d]thiazol-2-yl)-5-guanidino-1-oxopentan-2-yl)-3-(2-(methylthio)ethyl)-2,5,8-trioxo-1,4,9-triazacyclotetradecane-14-carboxamide] | 119 |  | > 20000 |  |  |  | Calu-3 EC50 (nM) [1]: almost equivalent activity |
| CC(=O)N[C@H]1CC(=O)NCCCC[C@@H](C(=O)N[C@@H](CCCNC(=N)N)C(=O)c2nc3ccccc3s2)NC(=O)CNC1=O [VD3174, (6S,14S)-6-acetamido-N—((S)-1-(benzo[d]thiazol-2-yl)-5-guanidino-1-oxopentan-2-yl)-2,5,8-trioxo-1,4,9-triazacyclotetradecane-14-carboxamide] |  | 5.9 | > 20000 | 4310 | 6.3 | 6180 |  |
| CC(=O)N[C@H]1C/C=C\COc2ccc(cc2)C[C@@H](C(=O)N[C@@H](CCCNC(=N)N)C(=O)c2nc3ccccc3s2)NC(=O)[C@H](CC(C)C)NC1=O [VD4051, (7S,10S,13S,E)-7-acetamido-N—((S)-1-(benzo[d]thiazol-2-yl)-5-guanidino-1-oxopentan-2-yl)-10-isobutyl-8,11-dioxo-2-oxa-9,12-diaza-1(1,4)-benzenacyclotetradecaphan-4-ene-13-carboxamide] | 565 | 102 |  |  | 80.2 | 8810 |  |
| CC(=O)N[C@H]1CC(=O)N(C)CCCC[C@@H](C(=O)N[C@@H](CCCNC(=N)N)C(=O)c2nc3ccccc3s2)NC(=O)[C@H](CC(C)C)NC1=O [VD4192B] |  | 14.9 | 17100 | 12300 | 1.1 | 678 |  |
| CC(=O)N[C@H]1CC(=O)N(C)CCCC[C@@H](C(=O)N[C@@H](CCCNC(=N)N)C(=O)c2nc3ccccc3s2)NC(=O)[C@H](CC(C)C)NC1=O [VD4192C1] |  | 0.97 | > 20000 | 7730 | 111 | > 20000 |  |
| CC(=O)N[C@H]1CC(=O)N(C)CCCC[C@@H](C(=O)N[C@@H](CCCNC(=N)N)C(=O)c2nc3ccccc3s2)NC(=O)[C@H](CC(C)C)NC1=O [VD4192C2] |  | 1.75 | > 20000 | 8560 | 23.5 | 18500 |  |
| CC(=O)N[C@@H](CC(C)C)C(=O)N[C@@H](CC(C)C)C(=O)N[C@@H](CCCNC(=N)N)C(=O)c1nccs1 [ZFH6201, Ac-LLR-kt] | 349 |  |  |  |  |  |  |
| CC(=O)N[C@@H](CCCCN)C(=O)N[C@@H](CCC(N)=O)C(=O)N[C@@H](CC(C)C)C(=O)N[C@@H](CCCNC(=N)N)C(=O)c1nc2ccccc2s1 [ZFH7006, Ac-KQLR-kbt] | 78 |  |  |  |  |  |  |
| CC(=O)N[C@@H](Cc1c[nH]c2ccccc12)C(=O)N[C@@H](CC(C)C)C(=O)N[C@@H](Cc1ccccc1)C(=O)N[C@@H](CCCNC(=N)N)C(=O)c1nc2ccccc2s1 [ZFH7064, Ac-WLFR-kbt] | 150 |  |  |  |  |  | Calu-3 EC50 (nM) [1]: excellent potency |
| CC(=O)N[C@@H](CO)C(=O)N[C@@H](CCCCN)C(=O)N[C@@H](CC(C)C)C(=O)N[C@@H](CCCNC(=N)N)C(=O)c1nc2ccc(C(=O)N[C@H](C(N)=O)C(C)C)cc2s1 [ZFH7116, Ac-SKLR kbt V-amide] (Ac-SKL[X6]V-NH2) | 307 |  |  |  |  |  | IC50 (activated hepsin; Table 6, read-out: Hepsin IC50): 0.5 nM |
